From patent US6416964B2, “Methods of identifying modulators of kinases responsive to stress” (Merck & Co., Inc., priority 1998, dated 2002)

Columns and labels:
[1] = test system: 34 kDa Mst kinase (Mst 1 cleavage); assay: 34 kDa Mst kinase activation / Mst 1 cleavage in purified osteoclasts; assay type: cell-based; settings: for activation of the 34 kDa Mst kinase: purified osteoclasts
stress reponsive kinases = assay: activation of stress responsive kinases by compounds that modify osteoclast function; assay type: cell-based
Procedure: (§1) Preosteoclasts are generated and purified as described in Example 1. […] Untreated cells are included in the analyses and act as a negative control for kinase activities. Cells are then harvested and lysed in a HEPES (N-(2-hydroxyethyl)piperazine-N′-(2-ethansulfonic acid) or Tris buffer containing the following: β-glycerophosphate (50 mM); Na3VO4 (1 mM); NaF (1 mM); Microcystin LR (1 μM); leupeptin (10 μg/ml); aprotinin (10 μg/ml); phenylmethyl sulfonylfluoride (1 mM). Protein concentrations are determined for each lysate and 5-20 μg are loaded into each lane of a SDS-PAGE (sodium dodecyl sulfate-polyacrylamide gel electrophoresis) gel containing Myelin Basic Protein, or another kinase substrate, which has been polymerized into the gel at a concentration between 50-400 μg/ml. Molecular weight standards are also loaded into one or more lanes of the gels. In-gel kinase assays are run according to a standard procedure based on Kameshita and Fujisawa, 1989 (Anal. Biochem. 183:139-143) and of Gotoh et al., 1990 (Eur. J. Biochem. 193: 661-669), both references being incorporated by reference herein in their entirety. The proteins are electrophoresed in the above gels. The gels are then successively soaked in 50 mM HEPES, pH 7.6; 5 mM 2-mercaptoethanol and each of the following (for each wash): (a) 20% isopropanol; (b) no additions; (c) urea (6 M); (d) Urea (3 M); (e) Urea (0.75 M); and Tween 20 (0.05% vol:vol). Kinase reactions are then run by first soaking the gels in 20 mM HEPES, pH 7.6; 20 mM MgCl2; 2 mM DTT and then in the same buffer containing […] (non-radioactive) with ca. 1000 cpm/pmol ^32P-γ-ATP. The gels are then washed six times with 5% trichloroacetic acid and 1% pyrophosphate. The gels are then stained with Coomassie brilliant blue dye (0.125%) in 50% methanol, 10% acetic acid; destained with 30% methanol, 10% acetic acid; soaked in 2% glycerol; and dried using a gel dryer. The gels are then exposed to autoradiography film for times ranging from several hours to weeks. The bands observed in the autoradipgraphs representing the gels reflect kinase activities. […] The band intensities on the autoradiography film are quantitated by densitometry and comparisons between bands from untreated controls and bands from echistatin-treated cells provide the basis for the analyses.

34 kDa Kinase = assay: in-gel kinase assay in osteoclast-like cells; assay type: cell-based, mouse
Procedure: (§2) The following procedure is a modification of Wesolowski et al. (1995, Exp. Cell Res. 219: 679-686), which is incorporated by reference herein in its entirety. Cocultures are made by adding marrow cells from 6-week old mouse tibia and femur onto a monolayer of MB 1.8 mouse calvaria osteoblasts that are preseeded into culture dishes in α-MEM (minimal essential medium) containing fetal calf serum (10%) and 1,25 Dihydroxy Vitamin D3 (10 nM). Cocultures are maintained, with media changes every 48 hours, for a period of 6 days. Non-osteoclastic cells are removed by treatment of cocultures with Collagenase I (1 mg/ml in Phosphate Buffered Saline [PBS]). Collagenase-sensitive cells are removed by washing with PBS. Preosteoclasts are lifted from the dish using EDTA (0.2 g/L in PBS) and transferred into culture dishes and maintained in α-MEM containing fetal calf serum (10%), 1,25 Dihydroxy Vitamin D3 (10 nM), and m-Colony Stimulating Factor (5 ng/ml). Osteoclast-like cells (collagenase-insensitive, EDTA-insensitive cells) that remain attached to the original coculture dishes are maintained in α-MEM containing fetal calf serum (10%), 1,25 Dihydroxy Vitamin D3 (10 nM), and m-Colony Stimulating Factor (5 ng/ml).
as §1
A similar approach is also used to assay for the 34 kDa Kinase and the 130 kDa Kinase.
Osteoclast-like cells are generated as described in Example 1. The compound or compounds to be evaluated are added at the desired concentration to the osteoclast-like cells for any of various times (1 minute to several hours). Cell lysates are made using standard techniques and in-gel kinase assays are performed as described in Example 2.

[2] = test system: approximately 60 kDa kinase doublet (Mst 1, Mst 2); assay: in-gel kinase assay (myelin basic protein substrate) in purified preosteoclasts; assay type: cell-based, mouse
Procedure: as §2, §1

50 kDa Kinase [3] = assay: as above; assay type: cell-based, mouse
Procedure: as §2, §1

50 kDa Kinase [4] = assay: in-gel kinase assay in HEK 293 transfectants expressing human αvβ3 integrin; assay type: cell-based; settings: αvβ3 integrin transfected HEK 293 cells
Mst 1, Mst 2 [5] = assay: as above; assay type: cell-based; settings: αvβ3 integrin transfected HEK 293 cells
Mst 1, Mst 2 [6] = assay: in-gel kinase assay in Parental HEK 293 cells; assay type: cell-based, human; settings: 10-60 min (FIG. 5D-5F), Ala^24 echistatin 30 nM
50 kDa Kinase [7] = assay: in-gel kinase assay in Parental HEK 293 cells; assay type: cell-based, human; settings: 10-60 min (FIG. 5D-5F), Ala^24 echistatin 30 nM
[8] = osteoclast like cells, 30 μM and 100 μM, about 17 hours (FIG. 6)
[9] = osteoclast-like cells, 100 μM and 300 μM (FIG. 9)
[10] = dose response, standard (overnight) film exposure (FIG. 2A)

Compound: CC[C@H](C)C(=O)O[C@H]1C[C@@H](C)C=C2C=C[C@H](C)[C@H](CC[C@@H]3C[C@@H](O)CC(=O)O3)[C@H]21 [lovastatin]
- 34 kDa Mst 1 activity ([1]; treatment for 17-24 hours): increases

Compound: NCCCC(O)(P(=O)(O)O)P(=O)(O)O [alendronate, 4-amino-1-hydroxybutylidene-1,1-bisphosphonic acid monosodium trihydrate]
- activation of stress responsive kinases (stress reponsive kinases): activate
- activation of 34 kDa Kinase (34 kDa Kinase; osteoclast like cells, 30 μM (FIG. 7, lane 2)): activation
- activation of 34 kDa Kinase (34 kDa Kinase; [8]): activation
- activation of 34 kDa Kinase (34 kDa Kinase; osteoclast-like cells, 10 μM and 30 μM, about 17 hours (FIG. 9)): activation
- activation of 34 kDa Kinase immunoprecipitated by anti-Mst and anti-Krs antibody cocktail (34 kDa Kinase; osteoclast-like cells, 30 μM (FIG. 10, lane 3)): activated
- activation of 34 kDa Kinase when coincubated with caspase inhibitor Z—VAD—FMK (34 kDa Kinase; osteoclast-like cells, in the presence of Z—VAD—FMK (FIG. 9, lane 8)): does not activate
- activation of the 34 kDa Mst kinase [1]: induce activation

Compound: CC(C)=CCCC(C)=CCCC(C)=CCO [farnesol]
- blocking of lovastatin effects (34 kDa Mst 1 activity) [1]: not
- reduction of alendronate- and risedronate-induced Mst 1 cleavage [1]: about 50%

Compound: C[C@@](O)(CCO)CC(=O)O [mevalonic acid]
- blocking of lovastatin effects (34 kDa Mst 1 activity) [1]: blocked

Compound: O=C(NC[C@H](NS(=O)(=O)c1ccccc1)C(=O)O)c1ccc(OCCNC2=NCCCN2)cc1 [RGD II, (2-[N-(3,4,5,6-tetrahydropyrimidin-2-yl)amino]ethyloxyphen-4-yl)carbonyl-2(S)-phenylsulfonamido-beta-alanine]
- activation of stress responsive kinases (stress reponsive kinases): activate
- activation of Mst 1, Mst 2 ([2]; 10 μM (FIG. 4B)): effective in activating
- activation of 50 kDa kinase (50 kDa Kinase [3]; 10 μM (FIG. 4B)): effective in activating
- change in 50 kDa Kinase activity (50 kDa Kinase [4]; 10 μM, 0-60 min (FIG. 5B)): increase
- change in Mst 1 (ca. 59 kDa), Mst 2 (ca. 60 kDa) activities (Mst 1, Mst 2 [5]; 10 μM, 0-60 min (FIG. 5B)): increase

Compound: O=P(O)(O)C(Cl)(Cl)P(=O)(O)O [Clodronate, 1,1-dichloromethylene-1,1-diphosphonic acid]
- activation of the 34 kDa Mst kinase [1]: also induce

Compound: O=P(O)(O)C(O)(Cc1cccnc1)P(=O)(O)O [risedronate, 1-hydroxy-2-(3-pyridinyl)-ethylidene-1,1-bisphosphonic acid]
- activation of the 34 kDa Mst kinase [1]: induce activation

Compound: Cl.Cl.Cl.O=C(O)C[C@H](Cc1cnc2ccccc2c1)NC(=O)CN1CC[C@H](NCc2ccc3c(n2)NCCC3)C1=O [RGD I]
- activation of stress responsive kinases (stress reponsive kinases): activate
- activation of Mst 1, Mst 2 ([2]; 10 nM (FIG. 4B)): effective in activating
- activation of 50 kDa kinase (50 kDa Kinase [3]; 10 nM (FIG. 4B)): effective in activating

Compound: NCCC(O)(P(=O)(O)O)P(=O)(O)O [pamidronate, 3-amino-1-hydroxypropylidene-1,1-bisphosphonic acid]
- activation of the 34 kDa Mst kinase [1]: induce activation

Compound: calcitonin
- activation of stress responsive kinases (stress reponsive kinases): activate

Compound: O=P(O)(O)C(Sc1ccc(Cl)cc1)P(=O)(O)O [tiludronate disodium, (4-chlorophenyl)thiomethane-1,1-disphosphonic acid]
- activation of 34 kDa Kinase (34 kDa Kinase; [8]): failed to activate
- activation of 34 kDa Kinase (34 kDa Kinase; [9]): failed to activate

Compound: echistatin
- effect on activities of Mst 1, Mst 2 (Mst 1, Mst 2 [6]): no significant effect
- activation of stress responsive kinases (stress reponsive kinases): activate
- activation of approximately 60 kDa kinase doublet ([2]; 30 nM, time course (FIG. 1B)): strongly activated
- concentration of maximal activities of approximately 60 kDa kinase doublet [2, 10]: about 30 nM
- concentrations showing activation of approximately 60 kDa kinase doublet [2, 10]: ≥ 10 nM
- treatment time of maximal kinase activity ([2]; timecourse (FIG. 4A)): 20 min
- activation of kinase of approximately 50 kDa (50 kDa Kinase [3]; 30 nM, time course (FIG. 1B)): also activated
- activation of the approximately 50 kDa kinase (50 kDa Kinase [3]; 30 and 100 nM doses, extended (about 3-4 days) exposure (FIG. 2B)): activation
- change in 50 kDa Kinase activity (50 kDa Kinase [4]; 30 nM, 0-60 min (FIG. 5A, 5C)): increase
- change in Mst 1 (ca. 59 kDa), Mst 2 (ca. 60 kDa) activities (Mst 1, Mst 2 [5]; 30 nM, 0-60 min (FIG. 5A, 5C)): increase
- effect on activity of 50 kDa Kinase (50 kDa Kinase [7]): no significant effect

Compound: C[C@@]1(O)CCOC(=O)C1 [mevalonic acid lactone]
- reduction of alendronate- and risedronate-induced Mst 1 cleavage [1]: about 50%

Compound: CC(O)(P(=O)(O)O)P(=O)(O)O [etidronate disodium, 1-hydroxyethane-1,1-diphosphonic acid]
- activation of 34 kDa Kinase (34 kDa Kinase; [8]): failed to activate
- activation of 34 kDa Kinase (34 kDa Kinase; [9]): failed to activate
- activation of the 34 kDa Mst kinase [1]: to a lesser extent

Compound: CC(C)=CCC/C(C)=C/CC/C(C)=C/CC/C(C)=C/CO [geranylgeraniol]
- effect on activation of 34 kDa Kinase by 30 μM alendronate monosodium trihydrate (34 kDa Kinase; osteoclast like cells, 10 μM geranyl geraniol (FIG. 7, lane 3)): negates this activation
- blocking of alendronate- and risedronate-induced Mst 1 cleavage [1]: essentially completely blocked
- blocking of clodronate effects (34 kDa Mst kinase) [1]: not blocked
- blocking of lovastatin effects (34 kDa Mst 1 activity) [1]: blocked
